# Test results from paper PMC10904736, “A c-di-GMP signaling module controls responses to iron in Pseudomonas aeruginosa” (Nature Communications, 2024).
# Target: T1, ImcA (PA1851) (Pseudomonas aeruginosa, UniProt Q9I2P4)
# T1 construct: full-length membrane protein (6TM L47-E231, GGDEF R241-A393), expressed in E. coli BL21(DE3), DDM-solubilised, Strep-Tactin purified, homodimer
# Experiment: HPLC of c-di-GMP formation
# Assay type: biochemical
# Details: 200 µM GTP; 50 mM Tris-HCl pH 8.0, 150 mM NaCl, 0.025% DDM; 37 °C, 2 h; without IsmP
# T1 sequence (Q9I2P4 entry or part of it): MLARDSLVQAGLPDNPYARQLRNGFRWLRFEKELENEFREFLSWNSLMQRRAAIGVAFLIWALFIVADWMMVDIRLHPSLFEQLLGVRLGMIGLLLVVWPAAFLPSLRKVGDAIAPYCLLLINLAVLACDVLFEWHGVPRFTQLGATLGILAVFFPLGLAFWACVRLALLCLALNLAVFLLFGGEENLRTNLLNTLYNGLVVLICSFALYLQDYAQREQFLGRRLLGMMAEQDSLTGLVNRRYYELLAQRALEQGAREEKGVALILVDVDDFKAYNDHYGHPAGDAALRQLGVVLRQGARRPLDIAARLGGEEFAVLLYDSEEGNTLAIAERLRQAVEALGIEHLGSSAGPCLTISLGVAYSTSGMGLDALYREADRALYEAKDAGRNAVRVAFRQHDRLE
smiles,measurement,value
Nc1nc2c(ncn2[C@@H]2O[C@H](COP(=O)(O)OP(=O)(O)OP(=O)(O)O)[C@@H](O)[C@H]2O)c(=O)[nH]1 [GTP],HPLC of c-di-GMP formation,GTP was absolutely converted to c-di-GMP when GTP was incubated with ImcA alone
